“Also recorded” adds a separate entry of the source. Read-outs that look alike come from different tables or passages of the source. Each block holds one molecule with its values, some of them ahead of it.
Key:
[1] = tested on: carbachol-dependent mobilization of intracellular Ca2+ in SH-SY5Y cells; test: Antagonist effect on carbachol-evoked intracellular Ca2+ mobilization (Fluo-4 NW); type: cell-based, human
Method: (§1) The intracellular free Ca^2+ concentration [Ca^2+]i was measured in confluent monolayers of SH-SY5Y or A7R5 cells with the Ca^2+-sensitive fluorescent indicator Fluo-4 NW according to the instruction (Fluo-4 NW Calcium Assay Kit, Thermo Fisher Scientific, cat. No. F36206) (as referenced by Vilskersts et al..
The investigation of Ca^2+ channel blocking activity of DHP derivatives was based on the effect of DHP on carbachol evoked intracellular Ca^2+ mobilization in human neuroblastoma cells.
The cells were preincubated in the dark for 15 minutes with the tested compounds at concentrations ranging from 0.16 to 100 μM. The application of carbachol (100 nM) to […] NW loaded SH-SY5Y cells stimulated a classic “biphasic” response. The well-known 3rd generation calcium channel inhibitor amlodipine, which is also claimed to act as antioxidant and free radical scavenger, was used as the positive control (at the concentration range from 20 to 100 μM).
(§2) Changes in [Ca^2+]i were measured from the fluorescence emitted at 516 nm due to alternate excitation at 494 nm using the microplate reader Tecan Infinite M1000 (Austria). Intracellular Ca^2+ concentration was calculated from a standard curve with known amounts of free Ca^2+ using the standard Ca^2+-EGTA buffering system (Calcium Calibration Buffer Kit, cat. No.C-3008, Thermo Fisher Scientific).
The IC50 values for the tested compounds were calculated using GraphPad Prism 4.0 software.

[Ca2+]i in A7R5 cells = Ca2+ channel agonist activity in A7R5 aorta smooth muscle cells; type: cell-based, rat; details: 20 to 100 μM
Method: as §1
(§3) For the investigation of Ca^2+ channel agonist activity of the DHP compound, 4 […] NW loaded SH-SY5Y or A7R5 cells were stimulated by the addition of compound 4 at the concentration range from 4 to 100 μM. The well-known calcium channel agonist Bay K8644 was used as the positive control (at the concentration range from 4 to 100 μM).
as §2

isolated rat aortic ring = test: Isolated rat aortic ring model, KCl precontracted denuded rings
Method: The experimental animal (one rat) was anesthetized with pentobarbital sodium (60 mg/kg i.p.). Once deep anesthesia was achieved, the thoracic aorta was dissected, placed in ice cold Krebs-Henseleit (K-H) buffer (content in mM: NaCl 118, KCl 4.7, CaCl2 2.5, MgCl2 1.64, NaHCO3 24.88, KH2PO4 1.18, glucose 10.0, sodium pyruvate 5.0, and disodium salt of ethylenediaminetetraacetic acid 0.05), cleaned from connective and fatty tissues, and cut into 3-4 mm long rings. Endothelium was mechanically scraped off with the tips of forceps, and the aortic rings were mounted between two stainless steel hooks attached to an isometric force transducer in 20 ml organ bath in K-H buffer bubbled with 95% O2 and 5% CO2 at 37°C (one separate aortic ring was used for each tested compound). Passive tension was adjusted to approximately 40 mN over a 60 min equilibration period. The experiment was started after the equilibration period by adding KCl solution to obtain a concentration of 50 mM. Addition of KCl induced contraction of the aortic rings, and a plateau of contraction was reached about […]. Thereafter, the tested compound solutions in dimethyl sulfoxide were added to the aortic rings in order to obtain the final concentrations in the range of 10^−10-10^−5 M. Changes in the tension were recorded using LabChart Pro software from ADInstruments (https://www.adinstruments.com/products/labchart/labchart-for-research). The EC50 values of the tested compounds were calculated using Prism 3.0 software from GraphPad (GraphPad Software Inc., USA) (https://www.graphpad.com/scientific-software/prism/). The experimental procedures involving experimental animals were carried out in accordance with the guidelines of the European Community, LR local laws and policies, and were approved by the Latvian Animal Protection Ethical Committee, the Food and Veterinary Service, Riga, Latvia.

[2] = Electrochemical oxidation potentials by cyclic voltammetry; type: physicochemical; details: glassy carbon electrode, vs Ag/Ag+, acetonitrile, 0.1 M TBABF4
Method: The cyclic voltammetry experiments were carried out on the PARSTAT 2273 electrochemical system. A stationary glassy carbon disk electrode (d = 0.8 mm) served as the working electrode, while the counter electrode was a Pt wire. The oxidation potentials were measured relative to Ag/Ag^+ reference electrode. Acetonitrile was dried over P2O5 and distilled; the distillate was stored over CaH2 and redistilled just before use. Recrystallized tetrabutylammonium tetrafluoroborate (TBABF4) was used as a supporting electrolyte at 0.1 M concentration.

[Ca2+]i in SH-SY5Y cells = Ca2+ channel agonist activity, [Ca2+]i in Fluo-4 NW-loaded cells; type: cell-based, human; details: for Agonist activity (RFU, 100 μM): compound at 100 μM
Method: as §1, §3, §2
(§4) In some experiments, […] NW loaded cells were washed and placed in normal Ca^2+-free HEPES-buffered replacement medium. In Ca^2+ restoration experiments, Ca^2+ was initially absent from the medium and was restored to 1 mM after 870 s of stimulation with compound 4.

[3] = tested on: Ca2+ response induced by compound 4 in SH-SY5Y cells (RyRs); test: Role of RyRs in Ca2+ response induced by compound 4 (Ca2+-free medium); type: cell-based, human
Method: as §4
Where indicated, the cells were preincubated with inhibitors of Ca^2+ signaling proteins (amlodipine, nifedipine, nicardipine, mecamylamine, atropine, or 2-aminoethoxydiphenyl borate (2-APB) in dose 100 μM; procaine in dose 10 mM for 15 min, or with 5 μM thapsigargin for 10 min, or with 100 μM ruthenium red for 5 min), followed by stimulation with 100 μM of compound 4. The commercial calcium agonist compound Bay K8644 was used as the reference compound.

[4] = tested on: Ca2+ ion channel activity evoked by compound 4 in SH-SY5Y cells; test: Inhibitor analysis of Ca2+ ion channel activity evoked by compound 4; type: cell-based, human; details: for Effect on Ca2+ ion channel activity in the presence of compound 4: inhibitor at concentrations from 4 to 100 μM; for inhibition at 100 µM / IC50: Homo sapiens; for inhibition at 100 µM: SH-SY5Y, 15 min preincubation; for IC50: 100 μM compound 4, SH-SY5Y cells, read-out: IC50 for inhibition of Ca2+ ion channel activity evoked by compound 4
Method: The intracellular free Ca^2+ concentration [Ca^2+]i was measured in confluent monolayers of SH-SY5Y or […] cells with the Ca^2+-sensitive fluorescent indicator Fluo-4 NW according to the instruction (Fluo-4 NW Calcium Assay Kit, Thermo Fisher Scientific, cat. No. F36206) (as referenced by […] al.. Changes in [Ca^2+]i were measured from the fluorescence emitted at 516 nm due to alternate excitation at 494 nm using the microplate reader Tecan Infinite M1000 (Austria). Intracellular Ca^2+ concentration was calculated from a standard curve with known amounts of free Ca^2+ using the standard Ca^2+-EGTA buffering system (Calcium Calibration Buffer Kit, cat. No.C-3008, Thermo Fisher Scientific). […] The commercial calcium agonist compound Bay […] was used as the reference compound.

[5] = Homo sapiens, SH-SY5Y cells, 100 nM carbachol, 15 min preincubation, read-out: Antagonist activity (IC50)
[6] = SH-SY5Y cells, 100 nM carbachol, 15 min preincubation
[7] = inhibitor 100 μM, 100 μM compound 4
[8] = inhibitor 4 μM, 100 μM compound 4
[9] = inhibitor 20 μM, 100 μM compound 4

Structure (SMILES): CCN(CC)CCOC(=O)c1ccc(N)cc1 [Procaine]
- IC50 ([3]; Homo sapiens, SH-SY5Y, Ca2+-free medium, read-out: IC50 for inhibition of Ca2+ response induced by compound 4): 61 ± 9 µM
- inhibition at 6.25 µM ([3]; Homo sapiens, SH-SY5Y, inhibitor 6.25 μM, Ca2+-free medium): 0%
- inhibition at 12.5 µM ([3]; Homo sapiens, SH-SY5Y, inhibitor 12.5 μM, Ca2+-free medium): 5 ± 9%
- inhibition at 25 µM ([3]; Homo sapiens, SH-SY5Y, inhibitor 25 μM, Ca2+-free medium): 0%
- inhibition at 50 µM ([3]; Homo sapiens, SH-SY5Y, inhibitor 50 μM, Ca2+-free medium): 18 ± 6%
- inhibition at 100 µM ([3]; Homo sapiens, SH-SY5Y, inhibitor 100 μM, Ca2+-free medium): 98 ± 5%
- Ca2+ response induced by compound 4 after preincubation with inhibitor ([3]; inhibitor 10 mM): completely blocked; also recorded: absent

Structure (SMILES): COC(=O)C1=C(C)NC(C)=C([N+](=O)[O-])C1c1ccccc1C(F)(F)F (stereo not drawn) [Bay K8644]
- Antagonist activity (IC50) [1, 6]: No effect
- Agonist activity (RFU, 100 μM) ([Ca2+]i in SH-SY5Y cells): 1553 ± 115 RFU

Structure (SMILES): CN1[C@@H]2CC[C@H]1C[C@@H](OC(=O)C(CO)c1ccccc1)C2 (stereo partly drawn) [Atropine]
- Effect on Ca2+ ion channel activity in the presence of compound 4 [4]: no effect

Structure (SMILES): COC(=O)C1=C(C)NC(C)=C(C(=O)OC)C1c1ccccc1[N+](=O)[O-] [Nifedipine]
- inhibition at 100 µM [4, 7]: 42 ± 5%
- IC50 [4]: > 100 µM
- Inhibition (%) of Ca2+ ion channel activity evoked by compound 4 [4, 8]: 7 ± 8%
- Inhibition (%) of Ca2+ ion channel activity evoked by compound 4 [4, 9]: 16 ± 10%
- Phase of the compound 4 response that is inhibited [4, 7]: inhibited both phases

Structure (SMILES): N.N.N.N.N.N.N.N.N.N.N.N.N.N.[Cl-].[Cl-].[Cl-].[Cl-].[Cl-].[Cl-].[O-2].[O-2].[Ru+3].[Ru+3].[Ru+4] [Ruthenium, Ruthenium red]
- Ca2+ response induced by compound 4 after preincubation with inhibitor ([3]; inhibitor 100 μM): absent

Structure (SMILES): C/C=C(/C)C(=O)O[C@H]1C(C)=C2[C@H]([C@@H]1OC(=O)CCCCCCC)[C@@](C)(OC(C)=O)C[C@H](OC(=O)CCC)[C@@]1(O)[C@H]2OC(=O)[C@@]1(C)O [thapsigargin]
- Influence on Ca2+ ion increase induced by compound 4 ([4]; 5 μM inhibitor, Ca2+-free medium): no influence

Structure (SMILES): NCCOB(c1ccccc1)c1ccccc1 [Compound 2-APB, 2-aminoethoxydiphenyl borate]
- Effect on Ca2+ channel response induced by compound 4 ([4]; pretreatment for 15 min): no effect

Structure (SMILES): COC(=O)C1=C(C)NC(C)=C(C(=O)OCCN(C)Cc2ccccc2)C1c1cccc([N+](=O)[O-])c1 (stereo not drawn) [Nicardipine]
- inhibition at 100 µM [4, 7]: 33 ± 8%
- IC50 [4]: > 100 µM
- Inhibition (%) of Ca2+ ion channel activity evoked by compound 4 [4, 8]: 10 ± 6%
- Inhibition (%) of Ca2+ ion channel activity evoked by compound 4 [4, 9]: 11 ± 5%

Structure (SMILES): CNC1(C)C2CCC(C2)C1(C)C (stereo not drawn) [Mecamylamine]
- Effect on Ca2+ ion channel activity in the presence of compound 4 [4]: no effect

Continued, in another order:

- IC50 [1, 5]: 12 ± 2 µM
- IC50 ([1]; Homo sapiens, Table 5, SH-SY5Y cells, read-out: IC50, antagonist effect on Ca2+ channels activated with carbachol): 12 ± 2 µM
- EC50 (isolated rat aortic ring; KCl precontracted denuded rat aortic rings, read-out: Calcium channel blocking activity EC50): 0.691 ± 0.167 µM
- Electrooxidation potential [2]: 1.68 V
Structure (SMILES): CCOC(=O)COC(=O)C1=C(C)NC(C)=C(C(=O)OCC(=O)OCC)C1c1ccc[n+](C(C)C(=O)c2ccc(OCc3ccccc3)cc2)c1 (stereo not drawn) [Compound 4]
- inhibition at 8 µM ([1]; Homo sapiens, SH-SY5Y, compound at 0,8 μM, read-out: Inhibition (%) of Ca2+ channels activated with carbachol): 4 ± 10%
- inhibition at 16 µM ([1]; Homo sapiens, SH-SY5Y, compound at 0,16 μM, read-out: Inhibition (%) of Ca2+ channels activated with carbachol): -16 ± 10%
- inhibition at 4 µM ([1]; Homo sapiens, SH-SY5Y, compound at 4 μM, read-out: Inhibition (%) of Ca2+ channels activated with carbachol): 11 ± 12%
- inhibition at 20 µM ([1]; Homo sapiens, SH-SY5Y, compound at 20 μM, read-out: Inhibition (%) of Ca2+ channels activated with carbachol): 71 ± 9%
- Ca2+ ion channel agonist activity ([Ca2+]i in A7R5 cells): dose-dependent agonist activity
- Calcium channel blocking activity relative to amlodipine (times weaker) (isolated rat aortic ring; isolated rat aortic ring model): about 50 times
- Agonist effect (contractions of aorta rings) (isolated rat aortic ring; isolated rat aortic rings): no agonist effect
- Decrease of intracellular [Ca2+]i signal in the absence of extracellular Ca2+ ([Ca2+]i in SH-SY5Y cells; 100 μM compound, compared to presence of extracellular Ca2+): 50%
- Agonist activity (RFU, 100 μM) ([Ca2+]i in SH-SY5Y cells): 14425 ± 1072 RFU

- IC50 [1, 5]: 3.6 ± 0.3 µM
- Electrooxidation potential [2]: 1.68 V
Structure (SMILES): CCOC(=O)COC(=O)C1=C(C)NC(C)=C(C(=O)OCC(=O)OCC)C1c1ccc[n+](CC(=O)c2ccccc2)c1 [Compound 3]
- Agonist activity (RFU, 100 μM) ([Ca2+]i in SH-SY5Y cells): No effect

- Electrooxidation potential [2]: 1.70 V
Structure (SMILES): CCOC(=O)COC(=O)C1=C(C)NC(C)=C(C(=O)OCC(=O)OCC)C1c1cc[n+](CC(=O)c2ccccc2)cc1 [Compound 5]
- Antagonist activity (IC50) [1, 6]: lacked any activity; also recorded: no activity; also recorded: No effect
- Agonist activity (RFU, 100 μM) ([Ca2+]i in SH-SY5Y cells): No effect

- Electrooxidation potential [2]: 1.69 V
Structure (SMILES): CCOC(=O)CC[n+]1cccc(C2C(C(=O)OCC(=O)OCC)=C(C)NC(C)=C2C(=O)OCC(=O)OCC)c1 [Compound 2]
- Antagonist activity (IC50) [1, 6]: lacked any activity; also recorded: no activity; also recorded: No effect
- Agonist activity (RFU, 100 μM) ([Ca2+]i in SH-SY5Y cells): No effect

- IC50 [1, 5]: 100 ± 9 µM
- Electrooxidation potential [2]: 1.78 V
Structure (SMILES): CCOC(=O)COC(=O)C1=C(C)NC(C)=C(C(=O)OCC(=O)OCC)C1c1ccc[n+](CC(=O)c2ccc(OC)cc2)c1 [Compound 6]
- Antagonist activity relative to amlodipine (times lower) ([1]; SH-SY5Y cells): approximately nine times lower
- Agonist activity (RFU, 100 μM) ([Ca2+]i in SH-SY5Y cells): No effect

- IC50 [1, 5]: 100 ± 12 µM
Structure (SMILES): CCOC(=O)COC(=O)C1=C(C)NC(C)=C(C(=O)OCC(=O)OCC)C1c1ccc[n+](CC(=O)c2ccc([N+](=O)[O-])cc2)c1 [Compound 1]
- Agonist activity (RFU, 100 μM) ([Ca2+]i in SH-SY5Y cells): No effect
